Marks after values point to notes of the source that are not given here.
Experiment: Measurement of LogP values by HPLC on reversed phase columns (EEC directive 79/831 Annex V.A8)
Assay type: physicochemical
Protocol: The abbreviations and numerations of the substituent positions used in the context of the present invention and in the following Tables are explained in detail in the section Examples hereinafter. Also, the LogP values indicated in the following Tables are explained in detail in the section Examples hereinafter. In case LogP values for different diastereoisomers of a specific compound are […], said LogP values are […] by a “+”. […] Measurement of LogP values was performed according to EEC directive 79/831 Annex V.A8 by HPLC (High Performance Liquid Chromatography) on reversed phase columns with the following methods: […] Lambda-max-values were determined using UV-spectra from 200 nm to 400 nm and the peak values of the chromatographic signals

LogP | Structure (SMILES)
4.69[a] | COc1ccc(CNc2nsc(C(=O)NC3(C4CCCCC4)CC3)c2Cl)cc1 [I-113]
0.84[a] | Nc1nsc(C(=O)NC2CC2)c1Cl [I-115]
3.46[a] | Cc1cc(C)c(CN(C(=O)c2snc(N)c2Cl)C2CC2)c(C)c1 [I-116]
3.15[a] | Cc1cc(C)cc(CN(C(=O)c2snc(N)c2Cl)C2CC2)c1 [I-117]
3.33[a] | CC(C)c1ccccc1CN(C(=O)c1snc(N)c1Cl)C1CC1 [I-118]
3.04[a] | Cc1ccc(C)c(CN(C(=O)c2snc(N)c2Cl)C2CC2)c1 [I-119]
1.31[a] | Nc1nsc(C(=O)NCc2ccc(Cl)nc2)c1Cl [I-122]
1.93[a] | Nc1nsc(C(=O)NCc2ccc(F)c(F)c2)c1Cl [I-125]
2.08[a] | Cc1ccc(F)cc1CNC(=O)c1snc(N)c1Cl [I-127]
1.91[a] | Nc1nsc(C(=O)NCc2c(F)ccc(F)c2F)c1Cl [I-129]
2.03[a] | Nc1nsc(C(=O)NCc2cc(F)cc(F)c2F)c1Cl [I-130]
2.06[a] | Nc1nsc(C(=O)NCc2c(F)cccc2Cl)c1Cl [I-132]
1.91[a] | Nc1nsc(C(=O)NCc2ccc(C(F)F)cc2)c1Cl [I-133]
1.96[a] | Nc1nsc(C(=O)NCc2c(F)cc(F)cc2F)c1Cl [I-134]
3.96[a] | C#CCOC(=O)N(C(=O)OCC#C)c1nsc(C(=O)N[C@@H](C)C2CCCCC2)c1Cl [I-135]
3.17[a] | C#CCOC(=O)Nc1nsc(C(=O)N[C@@H](C)C2CCCCC2)c1Cl [I-137]
2.66[a] | Nc1nsc(C(=O)NCC2CCCC(C(F)(F)F)C2)c1Cl (centres unmarked) [I-139]
2.71[a] | Nc1nsc(C(=O)NCC2CCC(C(F)(F)F)CC2)c1Cl (centres unmarked) [I-141]
1.81[a] | Cc1ccc(CNC(=O)c2snc(N)c2C)c(F)c1 [I-145]
1.49[a] | Cc1c(N)nsc1C(=O)NCc1c(F)cccc1F [I-146]
1.69[a] | Cc1c(N)nsc1C(=O)NCc1ccc(F)c(F)c1 [I-149]
3.39[a] | Cc1cc(C)c(CN(C(=O)c2snc(N)c2Cl)C2CC2)cc1C [I-151]
3.04[a] | CCc1ccccc1CN(C(=O)c1snc(N)c1Cl)C1CC1 [I-153]
3.02[a] | Cc1cccc(C)c1CN(C(=O)c1snc(N)c1Cl)C1CC1 [I-154]
1.66[a] | Cc1c(N)nsc1C(=O)NCc1ccc(C(F)F)cc1 [I-156]
2.00[a] | Cc1c(N)nsc1C(=O)NCc1ccc(Cl)cc1F [I-159]

LogP | Structure (SMILES)
4.98[a] | O=C(NCc1ncc(C(F)(F)F)cc1Cl)c1cc(N(Cc2ccccc2)Cc2ccccc2)ns1 [I-162]
1.54[a] | Nc1cc(C(=O)NCc2ccc(F)c(F)c2)sn1 [I-166]
3.18[a] | CC(C)(C)C(=O)Nc1nsc(C(=O)NCC2CCCCC2)c1Cl [I-172]
1.82[a] | Nc1cc(C(=O)NCc2ccc(Cl)cc2F)sn1 [I-179]
1.50[a] | Nc1cc(C(=O)NCc2c(F)cc(F)cc2F)sn1 [I-180]
2.80[a] | CS(=O)(=O)N(c1nsc(C(=O)NCc2ccccc2F)c1Cl)S(C)(=O)=O [I-185]
1.64[a] | N#Cc1ccc(CNC(=O)c2snc(N)c2Cl)c(F)c1 [I-202]
3.37[a] | Nc1nsc(C(=O)N(Cc2ccc(Cl)cc2Cl)C2CC2)c1Cl [I-209]
2.73[a] | Nc1nsc(C(=O)N(Cc2c(F)cccc2Cl)C2CC2)c1Cl [I-210]
3.85[a] | Nc1nsc(C(=O)N(Cc2ccc(Cl)cc2Cl)C2CCC2)c1Cl [I-211]
4.12[a] | CC1(C)CC1N(Cc1ccc(Cl)cc1Cl)C(=O)c1snc(N)c1Cl (centres unmarked) [I-214]
3.19[a] | Nc1nsc(C(=O)N(Cc2c(Cl)cccc2C(F)(F)F)C2CC2)c1Cl [I-215]
3.53[a] | Nc1nsc(C(=O)N(Cc2cc(Cl)cc(C(F)(F)F)c2)C2CC2)c1Cl [I-216]
4.18[a] | COc1ccc(CNc2nsc(C(=O)NCc3ccc(F)cc3C(F)(F)F)c2Cl)cc1 [I-220]
4.41[a] | COc1ccc(CNc2nsc(C(=O)NCc3ccc(Oc4ccccc4)cc3)c2Cl)cc1 [I-221]
4.44[a] | COc1ccc(CNc2nsc(C(=O)NCc3ccc(Oc4ccc(F)cc4)cc3)c2Cl)cc1 [I-222]
3.46[a] | COc1ccc(CNc2nsc(C(=O)NCc3cccc(OC)c3F)c2Cl)cc1 [I-236]
3.00[a] | Nc1nsc(C(=O)NCc2ccc(Oc3ccc(F)cc3)cc2)c1Cl [I-238]
6.20[a] | C[C@H](NC(=O)c1snc(N(Cc2ccccc2)Cc2ccccc2)c1C1CC1)C1CCCCC1 [I-264]
4.29[a] | COc1ccc(CNc2nsc(C(=O)NCc3ncc(C(F)(F)F)cc3Cl)c2Cl)cc1 [I-268]
4.41[a] | COc1ccc(CNc2nsc(C(=O)NC3CCCC3c3ccccc3)c2Cl)cc1 (centres unmarked) [I-269]
2.68[a] | C[C@H](NC(=O)c1snc(N)c1C1CC1)C1CCCCC1 [I-271]
1.78[a] | Nc1cc(C(=O)NCc2cccc(Cl)c2)sn1 [I-281]
1.69[a] | Nc1cc(C(=O)NCc2ccccc2Cl)sn1 [I-282]
2.58[a] | Nc1nsc(C(=O)NCc2ncc(C(F)(F)F)cc2Cl)c1Cl [I-286]

Continued, compound first:

Structure (SMILES) | LogP
COc1ccc(CNC(=O)c2snc(N)c2Cl)cn1 [I-114] | 1.23[a]
Nc1nsc(C(=O)NCc2cccc(F)c2F)c1Cl [I-120] | 1.91[a]
Nc1nsc(C(=O)NCc2ccc(F)c(F)c2F)c1Cl [I-121] | 2.09[a]
Cc1ccc(CNC(=O)c2snc(N)c2Cl)c(F)c1F [I-123] | 2.26[a]
Nc1nsc(C(=O)NCc2ccccc2C(F)F)c1Cl [I-124] | 2.01[a]
COc1ccc(CNC(=O)c2snc(N)c2Cl)c(F)c1 [I-126] | 1.88[a]
Nc1nsc(C(=O)NCc2c(F)cccc2F)c1Cl [I-128] | 1.81[a]
Nc1nsc(C(=O)NCc2cc(F)c(F)c(F)c2)c1Cl [I-131] | 2.13[a]
COc1ccc(CNC(=O)c2snc(N)c2C)cn1 [I-136] | 0.96[a]
Nc1nsc(C(=O)NCC2(O)CCCCC2)c1Cl [I-138] | 1.51[a]
Nc1nsc(C(=O)NC2CCc3ccccc32)c1Cl (centres unmarked) [I-140] | 2.30[a]
CC(NC(=O)c1snc(N)c1Cl)c1ccccc1Cl (centres unmarked) [I-142] | 2.46[a]
Nc1nsc(C(=O)NC2(C3CCCCC3)CC2)c1Cl [I-143] | 2.82[a]
Cc1c(N)nsc1C(=O)NCc1cccc(F)c1F [I-147] | 1.64[a]
Cc1c(N)nsc1C(=O)NCc1ccc(C#N)cc1F [I-150] | 1.35[a]
Cc1ccc(CN(C(=O)c2snc(N)c2Cl)C2CC2)c(C)c1 [I-152] | 3.09[a]
Cc1c(N)nsc1C(=O)NCc1ccccc1C(F)F [I-157] | 1.74[a]
Cc1c(CNC(=O)c2snc(N)c2Cl)ccc(F)c1F [I-163] | 2.23[a]
Cc1ccc(CNC(=O)c2snc(N)c2Cl)c(F)c1 [I-164] | 2.18[a]
Nc1cc(C(=O)NCc2c(F)ccc(F)c2F)sn1 [I-165] | 1.51[a]
CC(=O)Nc1nsc(C(=O)NCC2CCCCC2)c1Cl [I-167] | 2.14[a]
O=C(Nc1nsc(C(=O)NCC2CCCCC2)c1Cl)c1ccccc1 [I-168] | 3.19[a]
CCCC(=O)Nc1nsc(C(=O)NCC2CCCCC2)c1Cl [I-170] | 2.84[a]
COc1ccc(CNC(=O)c2cc(N)ns2)c(F)c1 [I-171] | 1.48[a]

Structure (SMILES) | LogP
Nc1nsc(C(=O)NCc2ccc(Cl)cc2F)c1Cl [I-181] | 2.40[a]
Nc1nsc(C(=O)N(Cc2ccccc2)C2CC2)c1Cl [I-183] | 2.41[a]
CCc1cccc(C)c1CN(C(=O)c1snc(N)c1Cl)C1CC1 [I-184] | 3.35[a]
O=C(NCc1ncc(C(F)(F)F)cc1Cl)c1snc(N(Cc2ccccc2)Cc2ccccc2)c1Br [I-200] | 6.06[a]
Nc1nsc(C(=O)N(Cc2c(Cl)cccc2Cl)C2CC2)c1Cl [I-208] | 3.02[a]
Nc1nsc(C(=O)N(Cc2ccc(Cl)cc2Cl)CC2CC2)c1Cl [I-212] | 3.74[a]
CC(C)N(Cc1ccc(Cl)cc1Cl)C(=O)c1snc(N)c1Cl [I-213] | 3.71[a]
COc1ccc(CNc2nsc(C(=O)NCc3ccc(F)c(Oc4ccccc4)c3)c2Cl)cc1 [I-223] | 4.34[a]
COc1ccc(CNc2nsc(C(=O)NCc3ccc(OC)c(F)c3)c2Cl)cc1 [I-224] | 3.44[a]
COc1ccc(CNc2nsc(C(=O)NCc3ccc(Cl)cc3F)c2Cl)cc1 [I-225] | 4.03[a]
Nc1nsc(C(=O)NCc2ccc(Oc3ccccc3)cc2)c1Cl [I-227] | 2.94[a]
Nc1nsc(C(=O)NCc2ccc(F)c(Oc3ccccc3)c2)c1Cl [I-237] | 2.90[a]
COC(=O)Nc1nsc(C(=O)NCc2ccccc2F)c1Cl [I-239] | 1.98[a]
COc1ccc(CNC(=O)c2snc(N)c2Cl)cc1F [I-240] | 1.91[a]
COc1ccc(CNc2nsc(C(=O)NCc3ccc(Cl)cc3)c2Cl)cc1 [I-242] | 3.99[a]
CC1(C)CC(CNC(=O)c2snc(N)c2Cl)C1 [I-243] | 2.49[a]
C[C@H](NC(=O)c1snc(N(Cc2ccccc2)Cc2ccccc2)c1C(F)F)C1CCCCC1 [I-263] | 6.20[a]
COc1ccc(CNc2nsc(C(=O)NC3CCCCC3c3ccccc3)c2Cl)cc1 (centres unmarked) [I-267] | 4.69[a]
C[C@H](NC(=O)c1snc(N)c1C(F)F)C1CCCCC1 [I-270] | 2.96[a]
O=C(NCc1ccc(F)cc1F)c1snc(NC(=O)C(F)(F)F)c1Cl [I-280] | 2.64[a]
O=C(NCc1cccc(Cl)c1)c1cc(N(Cc2ccccc2)Cc2ccccc2)ns1 [I-283] | 4.71[a]
O=C(NCc1ccccc1Cl)c1cc(N(Cc2ccccc2)Cc2ccccc2)ns1 [I-284] | 4.67[a]
O=C(NCc1cc(F)cc(F)c1)c1cc(N(Cc2ccccc2)Cc2ccccc2)ns1 [I-285] | 4.53[a]

From patent US20190110476A1, “NOVEL ISOTHIAZOLAMIDES, PROCESSES FOR THEIR PREPARATION AND THEIR USE AS FUNGICIDES” (priority 2014, published 2019)
